Experimental data: US20170173008A1, “ANTIMICROBIAL AGENTS AND SCREENING METHODS” (PRESIDENT AND FELLOWS OF HARVARD COLLEGE, priority 2014, published 2017)
≈ marks a conversion by molar mass, not a printed value. Entries after “also recorded” stand apart in the source; their conditions may differ. Like-named read-outs stand apart in the source and are kept apart here.

Key:
[1] = test system: RcsF, a substrate of DsbA; assay: Disulfide bond formation in RcsF in growing E. coli liquid culture; type: cell-based; settings: liquid minimal medium
purified EcDsbB = molecular target: T1, purified EcDsbB (Escherichia coli, UniProt P0A6M2, C49V/C8A); assay: In vitro assay of purified DsbB (ubiquinone reduction); type: biochemical, E. coli
T1 construct: made in house; host or cells: E. coli
T1 sequence (P0A6M2 whole entry C8A/C49V): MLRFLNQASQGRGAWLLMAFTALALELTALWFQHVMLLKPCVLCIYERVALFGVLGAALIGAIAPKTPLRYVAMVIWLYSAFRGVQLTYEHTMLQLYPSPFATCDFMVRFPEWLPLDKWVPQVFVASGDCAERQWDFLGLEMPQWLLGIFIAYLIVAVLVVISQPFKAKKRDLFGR
Description: In addition to the in vivo assays of MICs, we have purified DsbB from E. coli and assessed the concentration dependence for inhibition of the enzyme's activity in oxidizing DsbA.
In this assay, we determine the concentration of a compound necessary to reduce the activity of purified DsbB enzyme by 50%. DsbB uses ubiquinone as a co-factor for the generation of disulfide bonds. DsbB oxidizes DsbA and reduces ubiquinone. When it is in the oxidized state, ubiquinone absorbs strongly at 275 nm but it has a diminished absorbance when it is in the reduced state at the same wavelength. Therefore, DsbB activity can be measured by the reduction of ubiquinone and this is assessed by following the decrease of absorbance of ubiquinone at 275 nm. The assay uses 20 μM purified and DTT-reduced DsbA, 20 uM UbQ-5, and 2 nM purified DsbB at pH6.0.
We tested several compounds for their inhibitory effect on EcDsbB-mediated ubiquinone reduction using purified enzymes. In this assay, reduced DsbA provides the source of electrons that are used by EcDsbB to reduce ubiquinone-5. The compounds show dose-dependent inhibition of EcDsbB with half-maximal inhibitory concentrations (IC50) in the low-μM range.

DsbB [2] = molecular target: DsbB (Escherichia coli, UniProt P0A6M2); assay: Oxidation of DsbA by DsbB in growing E. coli (in vivo alkylation assay); settings: liquid minimal medium
DsbB (Escherichia coli, UniProt P0A6M2), sequence (P0A6M2 whole entry): as the sequence (P0A6M2 whole entry C8A/C49V) above, with A8C, V49C counted along it
Method: Second, we measured MICs of the strongest inhibitors in terms of their effects on the oxidation of DsbA by DsbB and on the inhibition of disulfide bond formation in growing liquid cultures. […] The oxidation of DsbA was assessed by a standard alkylation assay for free cysteines in DsbA.
The in vivo chemical alkylation procedure was done as described previously (Chng S et al. Science 337, 1665-1668 (2012)). […] A 500 μl culture aliquot was then transferred to a 1.5 ml tube and precipitated with 50 μl of trichloroacetic acid (TCA, 100%, Mallinckrodt Baker). The mixture was incubated on ice for 10 min and precipitated proteins were pelleted at 18 000 g for 10 min. The protein pellet was washed with 600 μl ice-cold acetone and incubated on ice for 10 min. The protein was re-pelleted by centrifugation at 18 000 g for 3 min and left to air-dry at room temperature. The TCA-precipitated proteins were either directly subjected to alkylation or first reduced before alkylation. For reduction, proteins were incubated in 100 μl 100 mM Tris HCl, pH 8.0 containing 0.1% SDS and 100 mM dithiothreitol (DTT, Invitrogen) for 30 min at room temperature. M63 (500 μl) medium was added and the reduced proteins were re-precipitated with TCA and further washed with acetone. […]

E. coli DsbB = E. coli DsbB (Escherichia coli, UniProt P0A6M2); assay: Blue/white beta-galactosidase agar assay, DsbB-based E. coli strain; type: cell-based; settings: for MIC for blue color appearance / minimal inhibitory concentration of DsbB: β-galactosidase agar media assay
E. coli DsbB, sequence (P0A6M2 whole entry): as the sequence (P0A6M2 whole entry C8A/C49V) above, with A8C, V49C counted along it

DsbB [3] = molecular target: T2, DsbB (Escherichia coli, UniProt P0A6M2, C49V/C8A); assay: cell-based; type: cell-based, E. coli; settings: for EC50 RATIO (EC50 compound 16/EC50): E. coli DHB7935, liquid media
T2 construct: expressed in transfected cells; host or cells: E. coli DHB7935 (HK295 ΔdsbB λatt::malF-lacZ102, φ80::pDSW206dsbBhis6-c-myc)
T2 sequence (P0A6M2 whole entry C8A/C49V): as the sequence (P0A6M2 whole entry C8A/C49V) above

[4] = test system: DsbBs from other gram-negative pathogens; type: cell-based; settings: agar assay, 384-well plates
VKOR of M. tuberculosis = molecular target: T3, VKOR of M. tuberculosis (Mycobacterium tuberculosis, UniProt I6X5W1); type: cell-based; settings: agar assay
T3 sequence (I6X5W1 1-210): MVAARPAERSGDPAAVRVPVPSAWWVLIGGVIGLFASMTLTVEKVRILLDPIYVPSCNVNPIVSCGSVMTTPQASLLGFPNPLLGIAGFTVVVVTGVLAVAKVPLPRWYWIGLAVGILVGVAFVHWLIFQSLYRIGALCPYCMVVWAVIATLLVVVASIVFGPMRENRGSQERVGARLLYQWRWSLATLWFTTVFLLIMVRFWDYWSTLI

DsbB-DsbAC33A dimer = molecular target: T4, DsbB-DsbAC33A dimer (Escherichia coli, UniProt P0A6M2, C49V/C8A); assay: Mass spectrometry of DsbB-DsbAC33A complex treated with compound; type: binding, E. coli
T4 construct: made in house
T4 sequence (P0A6M2 whole entry C8A/C49V): as the sequence (P0A6M2 whole entry C8A/C49V) above
Method: Since the theoretical molecular weight of compound 16.6 is 289.54 Da, the 35.9-Da mass loss may represent a leaving chloride ion. This mass adduct was not observed when either DsbB (oxidized), DsbA (reduced) or DsbAC33A, alone was treated with the compound (FIG. 7C).

Row | SMILES | MIC, disulfide bond formation in RcsF [1] [µM] | IC50 (purified EcDsbB; IC50 (μM), Table 9) [µM] | IC50 (purified EcDsbB; IC50, purified DsbB) [µM] | MIC, oxidation of DsbA by DsbB (DsbB [2]) [µM] | MIC for blue color appearance / minimal inhibitory concentration of DsbB (E. coli DsbB) [µM] | EC50 (DsbB [3]) [nM] | EC50 RATIO (EC50 compound 16/EC50) (DsbB [3]) | IC50 (purified EcDsbB; in vitro assay, read-out: IC50) [µM] | inhibition of DsbBs of other gram-negative bacteria expressed in E. coli, in words [4] | concentration up to which no inhibition of VKOR was observed (VKOR of M. tuberculosis) [µM] | difference between inhibition of DsbB and of VKOR (E. coli DsbB; MIC DsbB versus highest concentration without VKOR inhibition) | adduct on Cys44 of DsbB (DsbB-DsbAC33A dimer; high-resolution tandem mass spectrometry, chymotrypsin digest) [Da] | adduct with the DsbB-DsbAC33A dimer (DsbB-DsbAC33A dimer; ion-trap mass spectrometry) [Da] | fold more inhibitory than compound 16 (DsbB [3]) [fold]
1 | O=c1c(Cl)c(Cl)cnn1Cc1ccccc1 [Compound 16] | 100 (≈ 25.5 µg/mL) | 1.86 | 1.85 | 5 | 5.7 | 5100 | 1.00 | – | – | – | – | – | – | –
2 | O=c1c(Cl)c(Cl)cnn1Cc1ccccc1Cl [Compound 16.6] | – | – | – | 0.7 | 0.53 | 160 | 23.03 | 0.0189 | most effective inhibitor; also recorded: one of the most effective inhibitors | > 50 | equal to or greater than two orders of magnitude | 252.995 | 253.6 | 23
